In ChEMBL document CHEMBL4219267, “Design and synthesis of plant cyclopeptide Astin C analogues and investigation of their immunosuppressive activity” (Bioorg Med Chem Lett, 2018) one finds IC50 data, which are given here for 18 compounds.

pIC50: −log10 of the molar value. Numbered stars: 1 amine (or outer) side, 2 acyl side, 3 side chain; on linkers, the order of the positions; unused ones are H or OH. Square brackets hold non-standard residues; d marks the D form. Peptide text beside a SMILES is read from it. β3hPhg = O=C(C[C@@H](N[*:1])c1ccccc1)[*:2]; ΔPro = O=C(O)[C@@H]1C=CCN1; Abu = CC[C@H](N)C(=O)O A value given as a limit tells only on which side of the number the result lay.

A short description of the experiment: Immunosuppressive activity in C57BL/6 mouse lymph node cells after 24 hrs by MTT assay. Format: functional. The note with it: C57BL/6, 24 h. On the technique in general: Tetrazolium dyes change colour on reduction, which living cells bring about.

Broadly, the pIC50 is the IC50 on a negative log10 scale, so that one unit is a factor of ten. Higher therefore signals a low IC50. The compound `CCCCCCC[C@@H]1NC(=O)[C@H](CC)NC(=O)C[C@H](c2ccccc2)NC(=O)[C@H](CO)NC(=O)[C@H](CC)NC1=O` showed a pIC50 of 4.19. In turn, `CC[C@@H]1NC(=O)C[C@H](c2ccccc2)NC(=O)[C@H](CC)NC(=O)C[C@H](c2ccccc2)NC(=O)[C@H](CO)NC1=O` had a pIC50 of 4.21. In turn, `CC[C@@H]1NC(=O)C[C@H](c2ccccc2)NC(=O)[C@H](CO)NC(=O)[C@H](CC)NC1=O` gave a pIC50 below 4.00. `CC[C@@H]1NC(=O)C[C@H](c2ccccc2)NC(=O)[C@H](CO)NC(=O)[C@H](CC)NC(=O)[C@H]([C@H](C)OC(=O)c2ccc[nH]2)NC1=O` gave a pIC50 below 4.00. For `CC[C@@H]1NC(=O)[C@@H]2[C@@H](O)[C@@H](O)CN2C(=O)[C@H](CC)NC(=O)C[C@H](c2ccccc2)NC(=O)[C@H](CO)NC1=O`, the pIC50 was below 4.00. With `CC[C@@H]1NC(=O)C[C@H](c2ccccc2)NC(=O)[C@H](CO)NC(=O)[C@H](CC)NC(=O)[C@@H]([C@@H](C)O)NC1=O`, the negative logarithm of the IC50 (pIC50) was 4.42. In turn, `CC[C@@H]1NC(=O)[C@@H]2[C@H](Cl)[C@H](Cl)CN2C(=O)[C@H](CC)NC(=O)C[C@H](c2ccccc2)NC(=O)[C@H](CO)NC1=O` had a negative logarithm of the IC50 (pIC50) of 4.90. As to `CC[C@@H]1NC(=O)C[C@H](c2ccccc2)NC(=O)[C@H](CO)NC(=O)[C@H](CC)NC(=O)[C@@H]([C@H](C)O)NC1=O`, the pIC50 was 4.29.

Compound `CC[C@@H]1NC(=O)C[C@H](c2ccccc2)NC(=O)[C@H](CO)NC(=O)[C@H](CC)NC(=O)[C@H]([C@@H](C)O)NC1=O` had a pIC50 below 4.00.

As to `CC[C@@H]1NC(=O)C[C@H](c2ccccc2)NC(=O)[C@H](CO)NC(=O)[C@H](CC)NC(=O)[C@H]([C@H](C)O)NC1=O`, the pIC50 was below 4.00. `CC[C@@H]1NC(=O)C[C@H](c2ccccc2)NC(=O)[C@H](CO)NC(=O)[C@H](CC)NC(=O)[C@H](C)NC1=O` (cyclo(A[Abu]S[β3hPhg][Abu])) gave a pIC50 below 4.00. `CC[C@@H]1NC(=O)C[C@H](c2ccccc2)NC(=O)[C@H](CO)NC(=O)[C@H](CC)NC(=O)[C@H](Cc2c[nH]cn2)NC1=O` (cyclo([Abu]H[Abu]S[β3hPhg])) showed a pIC50 below 4.00. The compound `CC[C@@H]1NC(=O)C[C@H](c2ccccc2)NC(=O)[C@H](CO)NC(=O)[C@H](CC)NC(=O)[C@H](CCCCN)NC1=O` (cyclo([Abu]K[Abu]S[β3hPhg])) showed a pIC50 below 4.00.

Consider `CC[C@@H]1NC(=O)C[C@H](c2ccccc2)NC(=O)[C@H](CO)NC(=O)[C@H](CC)NC(=O)[C@H](CC(C)C)NC1=O` (cyclo([Abu]L[Abu]S[β3hPhg])), for which the pIC50 was below 4.00.

For `CC[C@@H]1NC(=O)C[C@H](c2ccccc2)NC(=O)[C@H](CO)NC(=O)[C@H](CC)NC(=O)[C@H](CCCNC(=N)N)NC1=O` (cyclo([Abu]R[Abu]S[β3hPhg])), the pIC50 was below 4.00. On to `CC[C@@H]1NC(=O)C[C@H](c2ccccc2)NC(=O)[C@H](CO)NC(=O)[C@H](CC)NC(=O)[C@H](C(C)C)NC1=O` (cyclo([Abu]S[β3hPhg][Abu]V)), for which the pIC50 was below 4.00. `CC[C@@H]1NC(=O)C[C@H](c2ccccc2)NC(=O)[C@H](CO)NC(=O)[C@H](CC)NC(=O)[C@H](Cc2ccc(O)cc2)NC1=O` (cyclo([Abu]S[β3hPhg][Abu]Y)) had a pIC50 below 4.00. `CC[C@@H]1NC(=O)[C@@H]2C=CCN2C(=O)[C@H](CC)NC(=O)C[C@H](c2ccccc2)NC(=O)[C@H](CO)NC1=O` (cyclo([Abu]S[β3hPhg][Abu][ΔPro])): the pIC50 was below 4.00.
